# Target: T1, recombinant human glucokinase (beta cell isoform) (Homo sapiens, UniProt P35557)
# T1 construct: Full-length glucokinase (beta cell isoform) was His-tagged at the N-terminus; His tag (N); made in house; host or cells: E. coli BL21(DE3), vector pBCGK
# T1 sequence (P35557 1-465): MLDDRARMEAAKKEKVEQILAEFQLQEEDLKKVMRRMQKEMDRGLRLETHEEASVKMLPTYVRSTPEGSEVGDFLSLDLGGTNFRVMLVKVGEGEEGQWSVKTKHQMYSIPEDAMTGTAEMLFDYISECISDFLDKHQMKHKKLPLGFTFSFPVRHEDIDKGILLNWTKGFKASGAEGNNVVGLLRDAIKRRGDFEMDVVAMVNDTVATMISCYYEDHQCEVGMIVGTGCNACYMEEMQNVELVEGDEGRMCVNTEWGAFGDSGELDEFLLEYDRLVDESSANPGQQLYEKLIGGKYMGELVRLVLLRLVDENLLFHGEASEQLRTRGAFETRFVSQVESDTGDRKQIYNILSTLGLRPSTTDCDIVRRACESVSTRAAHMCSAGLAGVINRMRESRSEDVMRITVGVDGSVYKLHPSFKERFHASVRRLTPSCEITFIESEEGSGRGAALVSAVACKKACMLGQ
# Assay: Assay 1: Evaluating Activator Potency and Maximum Activation at 5 mM Glucose
# Type: biochemical
# Conditions: not given
# Procedure: Representative compounds of this invention were evaluated in biochemical assays (Assay 1 or Assay 2) to characterize their glucokinase activation properties.
# The recombinant human glucokinase protein utilized in both assays was prepared and purified as described below.
# BL21(DE3) cells (Invitrogen Corporation, Carlsbad, Calif.) containing pBCGK (C or N H is) vector were grown at 37° C. (in 2XYT) until the OD600 was between 0.6-1.0. Expression was induced by addition of isopropylthiogalactoside to a final concentration of 0.1-0.2 mM to the cells which were then incubated overnight at 23° C. The next day, cells were harvested via centrifugation at 5000 rpm for 15 minutes at 4° C. The cell pellet was stored at −80° C. for future purification.
# Beta Cell Glucokinase His-Taq Purification Conditions: A Ni-NTA (Quigan, Germantown, Md.) column (15-50 mL) was used for separation. Two buffers were prepared, 1) a lysis/nickel equilibration and wash buffer and 2) a nickel elution buffer. The lysis/equilibration/wash buffer was prepared as such: 25 mM HEPES buffer at pH 7.5, 250 mM NaCl, 20 mM imidazole, and 14 mM β-mercaptoethanol as final concentrations. The elution buffer was prepared as such: 25 mM HEPES at pH 7.5, 250 mM NaCl, 400 mM imidazole, and 14 mM β-mercaptoethanol as final concentrations. The buffers were each filtered with a 0.22 μm filter prior to use. The cell pellet (1 L culture) was resuspended in 300 mL of the lysis/equilibration buffer. The cells were then lysed (3 times) with a Microfluidics Model 110Y microfluidizer (Microfluidics Corporation, Newton, Mass.). The slurry was centrifuged with a Beckman Coulter Model LE-80K ultracentrifuge (Beckman Coulter, Fullerton, Calif.) at 40,000 rpm for 45 minutes at 4° C. The supernatant was transferred to a chilled flask. A volume of 20 μl was saved for gel analysis. A Pharmacia AKTA (GMI, Inc., Ramsey, Minn.) purification system was used for separation. The prime lines were purged with lysis/equilibration buffer. The Ni-NTA column was equilibrated with 200 mL of the lysis/equilibration buffer at a flow rate of 5 mL/minute. The supernantant was loaded over the column at 4 mL/minute and the flow-through was collected in a flask. The unbound proteins were washed with lysis/equilibration buffer at a flow rate of 5 mL/minute until the ultraviolet reaches baseline. The protein was then eluted from the column with the imidazole elution buffer via imidazole gradient 20 mM to 400 mM over 320 mL. The column was then stripped of any additional protein with 80 mL of the elution buffer. The elution fractions were each 8 mL, for a total yield of 50 samples. Fractions were analyzed by sodium dodecyl sulfate polyacrylamide (SDS-PAGE) and the fractions containing protein of interest were pooled and concentrated to 10 mL using ultrafiltration cell with a 10,000 molecular weight cut-off (MWCO) Millipore membrane (Sigma-Aldrich, St. Louis, Mo.) under nitrogen gas (60 psi). Protein was further purified by size exclusion chromatography (SEC) using a […] (320 mL) (Amersham Pharmacia, Uppsala, Sweden). SEC was equilibrated with 450 mL sizing buffer containing 25 mM HEPES pH 7.0, 50 mM NaCl, and 5 mM dithiothreitol. Concentrated protein was then loaded over SEC and elution with 400 mL sizing buffer was performed overnight at 0.5 mL/minute. The elution fractions were 5 mL each. The fractions were analyzed by SDS-PAGE and protein containing fractions were pooled. Concentration was measured using Bradford Assay/BSA Standard. Purified protein was stored in small aliquots at −80° C.
# Assay 1: Evaluating Activator Potency and Maximum Activation at 5 mM Glucose
# Full-length glucokinase (beta cell isoform) was His-tagged at the N-terminus and purified by a Ni column followed by size exclusion chromatography as described above. Glucose was obtained from Calbiochem (San Diego, Calif.) and other reagents were purchased from Sigma-Aldrich (St. Louis, Mo.).
row,EC50,SMILES
1,1630 nM,"Cc1cnc(NC(=O)c2cc(Oc3cnc(C(=O)N(C)C)c(F)c3)c3cn(C)nc3c2)cn1 [Example 1AC, 4-{[6-(dimethylcarbamoyl)-5-fluoropyridin-3-yl]oxy}-2-methyl-N-(5-methylpyrazin-2-yl)-2H-indazole-6-carboxamide]"

# Same assay, conditions: Assay 1; 5 mM glucose; NADH depletion at 340 nm, PK/LDH coupled; read-out: Glucokinase EC50
row,EC50,SMILES
1,293 nM,"Cc1ccc(NC(=O)c2cc(Oc3cnc(C(=O)N4CCCC4)cn3)c3cn(C)nc3c2)nc1 [Example 1A, 2-methyl-N-(5-methylpyridin-2-yl)-4-(5-(pyrrolidine-1-carbonyl)pyrazin-2-yloxy)-2H-indazole-6-carboxamide]"
2,863 nM,"CN(C)C(=O)c1ncc(Oc2cc(C(=O)Nc3ccc(Cl)cn3)cc3nn(C)cc23)cn1 [Example 1AA, N-(5-chloropyridin-2-yl)-4-(2-(dimethylcarbamoyl)pyrimidin-5-yloxy)-2-methyl-2H-indazole-6-carboxamide]"
3,1040 nM,"CN(C)C(=O)c1ncc(Oc2cc(C(=O)Nc3ccc(C(F)(F)F)cn3)cc3nn(C)cc23)cn1 [Example 1AB, 4-(2-(dimethylcarbamoyl)pyrimidin-5-yloxy)-2-methyl-N-(5-(trifluoromethyl)-pyridin-2-yl)-2H-indazole-6-carboxamide]"
4,463 nM,"CCn1cc2c(Oc3ccc(S(=O)(=O)CC)cc3)cc(C(=O)Nc3ccc(C)cn3)cc2n1 [Example 1AD, 2-ethyl-4-[4-(ethylsulfonyl)phenoxy]-N-(5-methylpyridin-2-yl)-2H-indazole-6-carboxamide]"
5,569 nM,"CCn1cc2c(Oc3cnc(C(=O)N(C)C)c(F)c3)cc(C(=O)Nc3cnc(C)cn3)cc2n1 [Example 1AE, 4-(6-(dimethylcarbamoyl)-5-fluoropyridin-3-yloxy)-2-ethyl-N-(5-methylpyrazin-2-yl)-2H-indazole-6-carboxamide]"
6,960 nM,"Cn1cc2c(Oc3cnc(C(=O)N4CCCC4)cn3)cc(C(=O)Nc3cnccn3)cc2n1 [Example 1B, 2-methyl-N-pyrazin-2-yl-4-{[5-(pyrrolidin-1-ylcarbonyl)pyrazin-2-yl]oxy}-2H-indazole-6-carboxamide]"
7,1490 nM,"Cc1ccc(NC(=O)c2cc(Oc3ccc(C(=O)N4CCCC4)c(F)c3)c3cn(C)nc3c2)nc1 [Example 1C, 4-[3-fluoro-4-(pyrrolidin-1-ylcarbonyl)-phenoxy]-2-methyl-N-(5-methylpyridin-2-yl)-2H-indazole-6-carboxamide]"
8,735 nM,"Cn1cc2c(Oc3ccc(C(=O)N4CCCC4)c(F)c3)cc(C(=O)Nc3cnccn3)cc2n1 [Example 1D, 4-[3-fluoro-4-(pyrrolidin-1-ylcarbonyl)-phenoxy]-2-methyl-N-pyrazin-2-yl-2H-indazole-6-carboxamide]"
9,4310 nM,"CN(C)C(=O)c1cnc(Oc2cc(C(=O)Nc3cnccn3)cc3nn(C)cc23)cn1 [Example 1E, 4-{[5-(dimethylcarbamoyl)pyrazin-2-yl]oxy}-2-methyl-N-pyrazin-2-yl-2H-indazole-6-carboxamide]"
10,2490 nM,"Cc1cnc(NC(=O)c2cc(Oc3cnc(C(=O)N(C)C)cn3)c3cn(C)nc3c2)cn1 [Example 1F, 4-{[5-(dimethylcarbamoyl)pyrazin-2-yl]oxy}-2-methyl-N-(5-methylpyrazin-2-yl)-2H-indazole-6-carboxamide]"
11,1550 nM,"Cc1ccc(NC(=O)c2cc(Oc3cnc(C(=O)N(C)C)cn3)c3cn(C)nc3c2)nc1 [Example 1G, 4-{[5-(dimethylcarbamoyl)pyrazin-2-yl]oxy}-2-methyl-N-(5-methylpyridin-2-yl)-2H-indazole-6-carboxamide]"
12,2770 nM,"COc1cnc(NC(=O)c2cc(Oc3cnc(C(=O)N(C)C)cn3)c3cn(C)nc3c2)cn1 [Example 1H, 4-{[5-(dimethylcarbamoyl)pyrazin-2-yl]oxy}-N-(5-methoxypyrazin-2-yl)-2-methyl-2H-indazole-6-carboxamide]"
13,19400 nM,"Cc1cnc(NC(=O)c2cc(Oc3cnc(C(F)(F)F)cn3)c3cn(C)nc3c2)cn1 [Example 1I, 2-methyl-N-(5-methylpyrazin-2-yl)-4-{[5-(trifluoromethyl)pyrazin-2-yl]oxy}-2H-indazole-6-carboxamide]"

# Target: T2, recombinant human glucokinase (Homo sapiens, UniProt P35557)
# T2 construct: Full-length glucokinase (beta cell isoform) was His-tagged at the N-terminus and purified by a Ni column followed by size exclusion chromatography as described above; His tag; made in house; host or cells: E. coli BL21(DE3), vector pBCGK
# T2 sequence (P35557 1-465): T1 sequence (P35557 1-465)
# Assay: Assay 2: Evaluating Activator Potency in a Matrix Assay at Multiple Glucose Concentrations
# Type: biochemical
# Conditions: Assay 2 matrix assay; 16 glucose concentrations; intrinsic EC50 = concentration affording a 50% reduction in the enzyme's Km (for glucose); read-out: Glucokinase EC50
row,EC50,SMILES
1,2280 nM,"CCn1cc2c(Oc3cnc(C(=O)N4CCOCC4)cn3)cc(C(=O)Nc3ccc(C)cn3)cc2n1 [Example 1CP, 2-ethyl-N-(5-methylpyridin-2-yl)-4-(5-(morpholine-4-carbonyl)pyrazin-2-yloxy)-2H-indazole-6-carboxamide]"
2,2880 nM,"CCn1cc2c(Oc3ccc(S(N)(=O)=O)cc3)cc(C(=O)Nc3ccn(C)n3)cc2n1 [Example 1CQ, 4-[4-(aminosulfonyl)phenoxy]-2-ethyl-N-(1-methyl-1H-pyrazol-3-yl)-2H-indazole-6-carboxamide]"
3,586 nM,"CCn1cc2c(Oc3ccc(S(N)(=O)=O)cc3)cc(C(=O)Nc3cnc(C)cn3)cc2n1 [Example 1CR, 4-[4-(aminosulfonyl)phenoxy]-2-ethyl-N-(5-methylpyrazin-2-yl)-2H-indazole-6-carboxamide]"
4,418 nM,"CCn1cc2c(Oc3ccc(S(N)(=O)=O)cc3)cc(C(=O)Nc3cnc(OC)cn3)cc2n1 [Example 1CS, 4-[4-(aminosulfonyl)phenoxy]-2-ethyl-N-(5-methoxypyrazin-2-yl)-2H-indazole-6-carboxamide]"
5,1820 nM,"CCn1cc2c(Oc3ccc(S(N)(=O)=O)cc3)cc(C(=O)Nc3ccc(F)cn3)cc2n1 [Example 1CT, 4-[4-(aminosulfonyl)phenoxy]-2-ethyl-N-(5-fluoropyridin-2-yl)-2H-indazole-6-carboxamide]"
6,1370 nM,"CCc1cnc(NC(=O)c2cc(Oc3ccc(S(N)(=O)=O)cc3)c3cn(CC)nc3c2)cn1 [Example 1CU, 4-[4-(aminosulfonyl)phenoxy]-2-ethyl-N-(5-ethylpyrazin-2-yl)-2H-indazole-6-carboxamide]"
7,715 nM,"CCn1cc2c(Oc3ccc(S(C)(=N)=O)cc3)cc(C(=O)Nc3ccc(C)cn3)cc2n1 (stereo not shown) [Example 1CV, 2-ethyl-N-(5-methylpyridin-2-yl)-4-[4-(S-methylsulfonimidoyl)phenoxy]-2H-indazole-6-carboxamide]"
8,2470 nM,"CCn1cc2c(Oc3ccc(S(C)(=N)=O)cc3)cc(C(=O)Nc3ccn(C)n3)cc2n1 (stereo not shown) [Example 1CY, 2-ethyl-N-(1-methyl-1H-pyrazol-3-yl)-4-[4-(S-methylsulfonimidoyl)phenoxy]-2H-indazole-6-carboxamide]"
